Key:
[1] = system: P-388 lymphocytic leukemia cells; test: cytotoxicity, cell culture assay using P-388 lymphocytic leukemia cells, compared with taxol; type: cell-based; conditions: for ED50 /ED50 (taxol): P-388 leukemia, value of less than 1 = more active than taxol; for biological activity as compared with taxol (in words): P-388 cell culture assay; for antineoplastic activity relative to taxol, cell culture assay (P-388 leukemia in vitro): fold activity versus taxol
Text: Acylation of 22 with various aromatic carboxylic acids in the presence of dicyclohexylcarbodiimide and 4-pyrrolidinopyridine has led to the preparation of various 2-debenzoyl-2-acyl taxols 13. […] For details of the cell culture assay, see Abbott, B. J., "Protocol 14 of Instruction 275," National Cancer Institute, National Institutes of Health, Jan. 24, 1978.

[2] = system: ovarian cancer and breast cancer; conditions: cited from earlier work
[3] = system: non-small cell lung cancer; conditions: preliminary studies; cited from earlier work

| SMILES | ED50 /ED50 (taxol) [1] | also measured |
| --- | --- | --- |
| CC(=O)O[C@H]1C(=O)[C@@]2(C)[C@H]([C@H](OC(=O)c3cccc(N)c3)[C@]3(O)C[C@H](OC(=O)[C@H](O)[C@@H](NC(=O)c4ccccc4)c4ccccc4)C(C)=C1C3(C)C)[C@]1(OC(C)=O)CO[C@@H]1C[C@@H]2O [Compound 13a] | 1500 |  |
| CC(=O)O[C@H]1C(=O)[C@@]2(C)[C@H]([C@H](OC(=O)c3ccc(C#N)cc3)[C@]3(O)C[C@H](OC(=O)[C@H](O)[C@@H](NC(=O)c4ccccc4)c4ccccc4)C(C)=C1C3(C)C)[C@]1(OC(C)=O)CO[C@@H]1C[C@@H]2O [Compound 13aa] | 30 |  |
| CC(=O)O[C@H]1C(=O)[C@@]2(C)[C@H]([C@H](OC(=O)/C=C/c3ccccc3)[C@]3(O)C[C@H](OC(=O)[C@H](O)[C@@H](NC(=O)c4ccccc4)c4ccccc4)C(C)=C1C3(C)C)[C@]1(OC(C)=O)CO[C@@H]1C[C@@H]2O [Compound 13b] | 10 | biological activity as compared with taxol (in words) [1]: less active or about as active as taxol |
| CC(=O)O[C@H]1C(=O)[C@@]2(C)[C@H]([C@H](OC(=O)c3ccc(Cl)cc3)[C@]3(O)C[C@H](OC(=O)[C@H](O)[C@@H](NC(=O)c4ccccc4)c4ccccc4)C(C)=C1C3(C)C)[C@]1(OC(C)=O)CO[C@@H]1C[C@@H]2O [Compound 13bb] | 150 |  |
| CC(=O)O[C@H]1C(=O)[C@@]2(C)[C@H]([C@H](OC(=O)c3cccc([N+](=O)[O-])c3)[C@]3(O)C[C@H](OC(=O)[C@H](O)[C@@H](NC(=O)c4ccccc4)c4ccccc4)C(C)=C1C3(C)C)[C@]1(OC(C)=O)CO[C@@H]1C[C@@H]2O [Compound 13c] | 0.3 | biological activity as compared with taxol (in words) [1]: much greater biological activity than taxol |
| CSc1ccc(C(=O)O[C@H]2[C@@H]3[C@]4(OC(C)=O)CO[C@@H]4C[C@H](O)[C@@]3(C)C(=O)[C@H](OC(C)=O)C3=C(C)[C@@H](OC(=O)[C@H](O)[C@@H](NC(=O)c4ccccc4)c4ccccc4)C[C@]2(O)C3(C)C)cc1 [Compound 13cc] | 12 |  |
| CC(=O)OC1C(=O)C2(C)C(O)CC3OCC3(OC(C)=O)C2C(OC(=O)c2cccc(Cl)c2)C2(O)CC(OC(=O)C(O)C(NC(=O)c3ccccc3)c3ccccc3)C(C)=C1C2(C)C (stereo not drawn) [Compound 13d] | 0.1 | biological activity as compared with taxol (in words) [1]: much greater biological activity than taxol |
| CC(=O)O[C@H]1C(=O)[C@@]2(C)[C@H]([C@H](OC(=O)c3ccc([N+](=O)[O-])cc3)[C@]3(O)C[C@H](OC(=O)[C@H](O)[C@@H](NC(=O)c4ccccc4)c4ccccc4)C(C)=C1C3(C)C)[C@]1(OC(C)=O)CO[C@@H]1C[C@@H]2O [Compound 13dd] | 8.3 |  |
| CC(=O)OC1C(=O)C2(C)C(O)CC3OCC3(OC(C)=O)C2C(OC(=O)c2cc([N+](=O)[O-])cc([N+](=O)[O-])c2)C2(O)CC(OC(=O)C(O)C(NC(=O)c3ccccc3)c3ccccc3)C(C)=C1C2(C)C (stereo not drawn) [Compound 13e] | 2.0 |  |
| CC(=O)O[C@H]1C(=O)[C@@]2(C)[C@H]([C@H](OC(=O)c3ccc(C(F)(F)F)cc3)[C@]3(O)C[C@H](OC(=O)[C@H](O)[C@@H](NC(=O)c4ccccc4)c4ccccc4)C(C)=C1C3(C)C)[C@]1(OC(C)=O)CO[C@@H]1C[C@@H]2O [Compound 13ee] | 30 |  |
| CC(=O)O[C@H]1C(=O)[C@@]2(C)[C@H]([C@H](OC(=O)c3cccc(N=[N+]=[N-])c3)[C@]3(O)C[C@H](OC(=O)[C@H](O)[C@@H](NC(=O)c4ccccc4)c4ccccc4)C(C)=C1C3(C)C)[C@]1(OC(C)=O)CO[C@@H]1C[C@@H]2O [Compound 13f, 2-debenzoyl-2-(m-azidobenzoyl)taxol] | 0.002 | biological activity as compared with taxol (in words) [1]: much greater biological activity than taxol; antineoplastic activity relative to taxol, cell culture assay (P-388 leukemia in vitro) [1]: 500 times |
| CC(=O)O[C@H]1C(=O)[C@@]2(C)[C@H]([C@H](OC(=O)c3ccc(C(C)=O)cc3)[C@]3(O)C[C@H](OC(=O)[C@H](O)[C@@H](NC(=O)c4ccccc4)c4ccccc4)C(C)=C1C3(C)C)[C@]1(OC(C)=O)CO[C@@H]1C[C@@H]2O [Compound 13ff] | 30 |  |
| COc1cc(C(=O)O[C@H]2[C@@H]3[C@]4(OC(C)=O)CO[C@@H]4C[C@H](O)[C@@]3(C)C(=O)[C@H](OC(C)=O)C3=C(C)[C@@H](OC(=O)[C@H](O)[C@@H](NC(=O)c4ccccc4)c4ccccc4)C[C@]2(O)C3(C)C)cc(OC)c1OC [Compound 13g] | 0.5 |  |
| CC(=O)O[C@H]1C(=O)[C@@]2(C)[C@H]([C@H](OC(=O)c3cccc(C#N)c3)[C@]3(O)C[C@H](OC(=O)[C@H](O)[C@@H](NC(=O)c4ccccc4)c4ccccc4)C(C)=C1C3(C)C)[C@]1(OC(C)=O)CO[C@@H]1C[C@@H]2O [Compound 13h] | 0.25 |  |
| CC(=O)O[C@H]1C(=O)[C@@]2(C)[C@H]([C@H](OC(=O)c3cccc(C(F)(F)F)c3)[C@]3(O)C[C@H](OC(=O)[C@H](O)[C@@H](NC(=O)c4ccccc4)c4ccccc4)C(C)=C1C3(C)C)[C@]1(OC(C)=O)CO[C@@H]1C[C@@H]2O [Compound 13i] | 15 |  |
| CC(=O)O[C@H]1C(=O)[C@@]2(C)[C@H]([C@H](OC(=O)c3cccc(F)c3)[C@]3(O)C[C@H](OC(=O)[C@H](O)[C@@H](NC(=O)c4ccccc4)c4ccccc4)C(C)=C1C3(C)C)[C@]1(OC(C)=O)CO[C@@H]1C[C@@H]2O [Compound 13j] | 0.35 |  |
| CC(=O)OC1C(=O)C2(C)C(O)CC3OCC3(OC(C)=O)C2C(OC(=O)c2cccs2)C2(O)CC(OC(=O)C(O)C(NC(=O)c3ccccc3)c3ccccc3)C(C)=C1C2(C)C (stereo not drawn) [Compound 13k] | 10 |  |
| CC(=O)O[C@H]1C(=O)[C@@]2(C)[C@H]([C@H](OC(=O)c3ccc(Cl)c(Cl)c3)[C@]3(O)C[C@H](OC(=O)[C@H](O)[C@@H](NC(=O)c4ccccc4)c4ccccc4)C(C)=C1C3(C)C)[C@]1(OC(C)=O)CO[C@@H]1C[C@@H]2O [Compound 13m] | 0.003 |  |
| CC(=O)O[C@H]1C(=O)[C@@]2(C)[C@H]([C@H](OC(=O)c3cccc(C)c3)[C@]3(O)C[C@H](OC(=O)[C@H](O)[C@@H](NC(=O)c4ccccc4)c4ccccc4)C(C)=C1C3(C)C)[C@]1(OC(C)=O)CO[C@@H]1C[C@@H]2O [Compound 13n] | 0.04 |  |
| CC(=O)O[C@H]1C(=O)[C@@]2(C)[C@H]([C@H](OC(=O)c3ccccc3Cl)[C@]3(O)C[C@H](OC(=O)[C@H](O)[C@@H](NC(=O)c4ccccc4)c4ccccc4)C(C)=C1C3(C)C)[C@]1(OC(C)=O)CO[C@@H]1C[C@@H]2O [Compound 13o] | 0.011 | biological activity as compared with taxol (in words) [1]: increased bioactivity as compared with taxol |
| COc1cccc(C(=O)O[C@H]2[C@@H]3[C@]4(OC(C)=O)CO[C@@H]4C[C@H](O)[C@@]3(C)C(=O)[C@H](OC(C)=O)C3=C(C)[C@@H](OC(=O)[C@H](O)[C@@H](NC(=O)c4ccccc4)c4ccccc4)C[C@]2(O)C3(C)C)c1 [Compound 13p] | 0.0004 |  |
| CC(=O)O[C@H]1C(=O)[C@@]2(C)[C@H]([C@H](OC(=O)c3cccc(Oc4ccccc4)c3)[C@]3(O)C[C@H](OC(=O)[C@H](O)[C@@H](NC(=O)c4ccccc4)c4ccccc4)C(C)=C1C3(C)C)[C@]1(OC(C)=O)CO[C@@H]1C[C@@H]2O [Compound 13r] | 4.3 |  |
| CC(=O)O[C@H]1C(=O)[C@@]2(C)[C@H]([C@H](OC(=O)c3cccc(I)c3)[C@]3(O)C[C@H](OC(=O)[C@H](O)[C@@H](NC(=O)c4ccccc4)c4ccccc4)C(C)=C1C3(C)C)[C@]1(OC(C)=O)CO[C@@H]1C[C@@H]2O [Compound 13s] | 0.028 |  |
| CC(=O)O[C@H]1C(=O)[C@@]2(C)[C@H]([C@H](OC(=O)c3cc(F)cc(F)c3)[C@]3(O)C[C@H](OC(=O)[C@H](O)[C@@H](NC(=O)c4ccccc4)c4ccccc4)C(C)=C1C3(C)C)[C@]1(OC(C)=O)CO[C@@H]1C[C@@H]2O [Compound 13t, 2-debenzoyl-2-(3,5-difluorobenzoyl)taxol] | 0.00004 | antineoplastic activity relative to taxol, cell culture assay (P-388 leukemia in vitro) [1]: 25,000 times; antineoplastic activity relative to taxol, cell culture assay (P-388 leukemia in vitro) ([1]; listed as drawing 14): about 25,000 times |
| CC(=O)O[C@H]1C(=O)[C@@]2(C)[C@H]([C@H](OC(=O)c3ccc4ccccc4c3)[C@]3(O)C[C@H](OC(=O)[C@H](O)[C@@H](NC(=O)c4ccccc4)c4ccccc4)C(C)=C1C3(C)C)[C@]1(OC(C)=O)CO[C@@H]1C[C@@H]2O [Compound 13u] | 10 |  |
| CC(=O)O[C@H]1C(=O)[C@@]2(C)[C@H]([C@H](OC(=O)c3ccoc3)[C@]3(O)C[C@H](OC(=O)[C@H](O)[C@@H](NC(=O)c4ccccc4)c4ccccc4)C(C)=C1C3(C)C)[C@]1(OC(C)=O)CO[C@@H]1C[C@@H]2O [Compound 13v] | 1.4 |  |
| CC(=O)O[C@H]1C(=O)[C@@]2(C)[C@H]([C@H](OC(C)=O)[C@]3(O)C[C@H](OC(=O)[C@H](O)[C@@H](NC(=O)c4ccccc4)c4ccccc4)C(C)=C1C3(C)C)[C@]1(OC(C)=O)CO[C@@H]1C[C@@H]2O [Compound 13w] | 28 |  |
| CC(=O)O[C@H]1C(=O)[C@@]2(C)[C@H]([C@H](OC(=O)COc3ccccc3)[C@]3(O)C[C@H](OC(=O)[C@H](O)[C@@H](NC(=O)c4ccccc4)c4ccccc4)C(C)=C1C3(C)C)[C@]1(OC(C)=O)CO[C@@H]1C[C@@H]2O [Compound 13x] | 0.7 |  |
| CC(=O)O[C@H]1C(=O)[C@@]2(C)[C@H]([C@H](OC(=O)c3ccc(F)cc3)[C@]3(O)C[C@H](OC(=O)[C@H](O)[C@@H](NC(=O)c4ccccc4)c4ccccc4)C(C)=C1C3(C)C)[C@]1(OC(C)=O)CO[C@@H]1C[C@@H]2O [Compound 13y] | 0.5 |  |
| CC(=O)O[C@H]1C(=O)[C@@]2(C)[C@H]([C@H](OC(=O)c3ccccc3)[C@]3(O)C[C@H](OC(=O)[C@H](O)[C@@H](NC(=O)c4ccccc4)c4ccccc4)C(C)=C1C3(C)C)[C@]1(OC(C)=O)CO[C@@H]1C[C@@H]2O [Taxol] |  | clinical activity [2]: excellent clinical activity; clinical activity [3]: good activity |
